According to US5972379A, “Liposome composition and method for administering a quinolone” (Sequus Pharmaceuticals, Inc., priority 1998, dated 1999):
≈ marks a conversion by molar mass, not a printed value. Read-outs that look alike come from different tables or passages of the source.

Assays:
E. faecalis = experiment: Minimum inhibitory concentration, broth microdilution (NCCLS M7-A); format: cell-based; conditions: Enterococcus faecalis, read-out: Minimum Inhibitory Concentration
Procedure: (§1) The minimum inhibitory concentration of the drugs against the bacterial strains S. pyrogenes, E. faecalis, S. aureus, E. coli and P. aeruginosa were determined.

P. aeruginosa = experiment: as above; format: cell-based; conditions: Pseudomonas aeruginosa, read-out: Minimum Inhibitory Concentration
Procedure: as §1

S. pyrogenes = experiment: as above; format: cell-based; conditions: read-out: Minimum Inhibitory Concentration
Procedure: as §1

E. coli = experiment: as above; format: cell-based; conditions: Escherichia coli, inoculum 5×10^5 CFU/ml
Procedure: (§2) As described above, glycinyl-ciprofloxacin was prepared as set forth in Example 2A-2B and tested for antimicrobial activity in vitro, as described in Example 2C. The minimum inhibitory concentration of the drugs against the bacterial strains S. pyrogenes, E. faecalis, S. aureus, E. coli and P. aeruginosa were determined.
(§3) Minimum inhibitory concentrations were determined by a broth microdilution technique following the National Committee for Clinical Laboratory Standards guidelines (NCCLS document M7-A, National Committee for Laboratory Standards, Villanova, Pa., 1994 Approved Standard for "Methods for dilution antimicrobial susceptibility tests for bacteria that grow aerobically") with a starting inoculum of 5×10^5 CFU/ml.

S. aureus = experiment: as above; format: cell-based; conditions: Staphylococcus aureus, inoculum 5×10^5 CFU/ml
Procedure: as §2, §3

[1] = Remote drug loading into PEG-coated liposomes; format: physicochemical; conditions: for % Drug Loading / Drug Conc. at Lipid Conc. of 36 mg/ml / Internal Liposome Drug Conc.: Drug:Lipid Ratio (mg/ml/mM) 2.5:50 (lysine-cipro), 5:50 (glycine-cipro)
Procedure: The chloroform was removed using a flash evaporator under reduced pressure until dryness. To the thin lipid film on the surface of the flask was added 15 ml of a solution of 250 mM ammonium sulfate, pH 5.5 and the lipids were dispersed in the solution by vigorous shaking for approximately 30 minutes at 60° C. The multilamellar vesicles obtained were extruded 6 times through a 0.4 μm pore-size Nucleopore polycarbonate filter, 6 times through a 0.1 μm polycarbonate filter and 3 times through a 0.05 μm polycarbonate filter using a stainless steel extrusion cell under a pressure of 200-400 psig. The extrusion process was carried out at 60° C. […] The liposomes were then dialyzed overnight against 4 liters 10% sucrose to remove external ammonium sulfate at 4° C.
The mixtures were incubated at 60° C. for 30 minutes. After incubation, the mixtures were immediately cooled in an ice bath. Aliquot samples were taken and the percent of drug loading was determined by using a Sephadex G-50 column (1.0×19 cm).

[2] = tested on: S. pyrogenes, E. faecalis, S. aureus, E. coli and P. aeruginosa; experiment: Antimicrobial activity of conjugate versus ciprofloxacin (MIC, summary in words); format: cell-based; conditions: compared with ciprofloxacin, MICs of Table 1
Procedure: as §1

[3] = cited from earlier work
[4] = amino group (NH3) of amino acid, Lehninger
[5] = amino acid used to modify ciprofloxacin

NCC(=O)N1CCN(c2cc3c(cc2F)c(=O)c(C(=O)O)cn3C2CC2)CC1 [glycinyl-ciprofloxacin]
MIC (E. faecalis; E. faecalis, inoculum 5×10^5 CFU/ml): 32 µg/mL (≈ 82.4 µM) | MIC (P. aeruginosa; P. aeruginosa, inoculum 5×10^5 CFU/ml): > 512 µg/mL | MIC (S. pyrogenes; S. pyrogenes, inoculum 5×10^5 CFU/ml): 4 µg/mL (≈ 10.3 µM) | MIC (E. coli): 8 µg/mL (≈ 20.6 µM) | MIC (S. aureus): 32 µg/mL (≈ 82.4 µM) | % Drug Loading [1]: 75% | Drug Conc. at Lipid Conc. of 36 mg/ml [1]: 5 | Internal Liposome Drug Conc. [1]: 37.5 mg/mL | potency relative to ciprofloxacin [2]: some loss of potency

O=C(O)c1cn(C2CC2)c2cc(N3CCNCC3)c(F)cc2c1=O [ciprofloxacin, 1-cyclopropyl-6-fluoro-1,4-dihydro-4-oxo-7-(1-piperazinyl)-3-quinoline carboxylic acid]
MIC (E. faecalis): 1 µg/mL (≈ 3.02 µM) | MIC (P. aeruginosa): < 0.5 µg/mL | MIC (S. pyrogenes): < 0.5 µg/mL | MIC (S. aureus): 1 µg/mL (≈ 3.02 µM) | percent of drug loading ([1]; lipid/drug ratio 2): 49% | percent of drug loading ([1]; lipid/drug ratio 4): 75% | percent of drug loading ([1]; lipid/drug ratio 8): 90% | ciprofloxacin loading ([1]; lipid/drug ratio 8, as stated in leakage test): 75% | percent of drug loading ([1]; lipid/drug ratio 16): 91%

NCCCC[C@H](N)C(=O)O [lysine]
pKa [3, 4]: 8.95

α-aminocapric acid
pKa [3, 5]: 9.6

N=C(N)NCCC[C@H](N)C(=O)O [arginine]
pKa [3, 4]: 9.04

ε-aminocapric acid
pKa [3, 5]: 10.5

NCC(=O)O [glycine]
pKa [3, 4]: 9.6

NCCCC[C@H](N)C(=O)N1CCN(c2cc3c(cc2F)c(=O)c(C(=O)O)cn3C2CC2)CC1 [lysinyl-ciprofloxacin]
% Drug Loading [1]: 73% | Drug Conc. at Lipid Conc. of 36 mg/ml [1]: 1.825 | Internal Liposome Drug Conc. [1]: 13.1 mg/mL

C[C@H](N)C(=O)O [alanine]
pKa [3, 4]: 9.7
